Assay results reported in patent US9296741B2, “Bromodomain inhibitors” (priority 2012, dated 2016).
Read-outs that look alike come from different tables or passages of the source.

Columns and labels:
[1] = target: human BRD4 first bromodomain (BDI_K57-E168) (Homo sapiens (Human), UniProt O60885); assay: TR-FRET bromodomain binding assay, BRD4 first bromodomain
[2] = target: human BRD4 second bromodomain (BDII_E352-M457) (Homo sapiens (Human), UniProt O60885); assay: TR-FRET bromodomain binding assay, BRD4 second bromodomain
[3] = system: breast cancer cell line MX-1; assay: MX-1 cell line proliferation assay; assay type: cell-based, human; conditions: MX-1 cells, 3-day proliferation, Cell Titer Glo, read-out: Cellular proliferation: EC50
[4] = Human liver microsome stability assay; assay type: in vitro ADME; conditions: human, microsomes, pH 7.4; for half-life at 0.5 μM: both sexes
[5] = Rat liver microsome stability assay; assay type: in vitro ADME; conditions: for half-life at 0.5 μM: rat liver microsomes (male Sprague-Dawley), 0.5 μM test compound, 0.25 mg/mL microsomal protein, pH 7.4, 37° C., read-out: Stability in rat liver microsomes (t1/2 in minutes)
[6] = Mouse liver microsome stability assay; assay type: in vitro ADME; conditions: microsomes, pH 7.4; for half-life at 0.5 μM: male, CD1, mouse

Row | SMILES | Ki [1] [nM] | Ki [2] [nM] | EC50 ([3]; Homo sapiens, MX1, 72 h) [nM] | half-life at 0.5 μM [4] [min] | half-life at 0.5 μM [5] [min] | half-life at 0.5 μM [6] [min] | EC50 [3] [nM] | Stability in human liver microsomes (t1/2 in minutes) [4] [min] | Stability in rat liver microsomes (t1/2 in minutes) ([5]; rat, microsomes, pH 7.4) [min] | Stability in mouse liver microsomes (t1/2 in minutes) ([6]; mouse) [min]
1 | Cn1cc(-c2cc(S(C)(=O)=O)ccc2Oc2cccc(C(F)(F)F)c2)c2cc[nH]c2c1=O [Example 157, 6-methyl-4-{5-(methylsulfonyl)-2-[3-(trifluoromethyl)phenoxy]phenyl}-1,6-dihydro-7H-pyrrolo[2,3-c]pyridin-7-one] | 30.8 | 21.8 | 150 | 27 | 53 | 12 | – | – | – | –
2 | Cn1cc(-c2cc(S(C)(=O)=O)ccc2Oc2ccc(CC(N)=O)cc2)c2cc[nH]c2c1=O [Example 165, 2-{4-[2-(6-methyl-7-oxo-6,7-dihydro-1H-pyrrolo[2,3-c]pyridin-4-yl)-4-(methylsulfonyl)phenoxy]phenyl}acetamide] | 5 | 2.2 | 104 | > 120 | 111 | 27 | – | – | – | –
3 | CCS(=O)(=O)c1ccc(OC2CCN(C)CC2)c(-c2cn(C)c(=O)c3[nH]ccc23)c1 [Example 170, 4-{5-(ethylsulfonyl)-2-[(1-methylpiperidin-4-yl)oxy]phenyl}-6-methyl-1,6-dihydro-7H-pyrrolo[2,3-c]pyridin-7-one] | 22.8 | 94 | 332 | > 120 | 113 | 27 | – | – | – | –
4 | Cc1ccc(Oc2ccc(S(C)(=O)=O)cc2-c2cn(C)c(=O)c3[nH]ccc23)cc1 [Example 177, 6-methyl-4-[2-(4-methylphenoxy)-5-(methylsulfonyl)phenyl]-1,6-dihydro-7H-pyrrolo[2,3-c]pyridin-7-one] | 11.3 | 4.4 | 53.5 | 16 | 6 | 18 | – | – | – | –
5 | COc1ccccc1Oc1ccc(S(C)(=O)=O)cc1-c1cn(C)c(=O)c2[nH]ccc12 [Example 178, 4-[2-(2-methoxyphenoxy)-5-(methylsulfonyl)phenyl]-6-methyl-1,6-dihydro-7H-pyrrolo[2,3-c]pyridin-7-one] | 10.5 | 3.2 | 36.2 | 27 | 7 | 10 | – | – | – | –
6 | Cc1ccc(F)c(Oc2ccc(S(C)(=O)=O)cc2-c2cn(C)c(=O)c3[nH]ccc23)c1 [Example 186, 4-[2-(2-fluoro-5-methylphenoxy)-5-(methylsulfonyl)phenyl]-6-methyl-1,6-dihydro-7H-pyrrolo[2,3-c]pyridin-7-one] | 10.1 | 3.3 | 48.4 | 9 | 3 | 8 | – | – | – | –
7 | Cn1cc(-c2cc(S(C)(=O)=O)ccc2NCC2CCOC2)c2cc[nH]c2c1=O (stereo not drawn) [Example 201, 6-methyl-4-{5-(methylsulfonyl)-2-[(tetrahydrofuran-3-ylmethyl)amino]phenyl}-1,6-dihydro-7H-pyrrolo[2,3-c]pyridin-7-one] | 10.2 | 40.7 | 135 | 56 | 117 | > 120 | – | – | – | –
8 | Cn1cc(-c2cc(S(C)(=O)=O)ccc2OCC2(F)COC2)c2cc[nH]c2c1=O [Example 206, 4-{2-[(3-fluorooxetan-3-yl)methoxy]-5-(methylsulfonyl)phenyl}-6-methyl-1,6-dihydro-7H-pyrrolo[2,3-c]pyridin-7-one] | 11.6 | 22.8 | 77.7 | > 120 | 118 | 95 | – | – | – | –
9 | CNS(=O)(=O)c1cnc(OCC2CC2)c(-c2cn(C)c(=O)c3[nH]ccc23)c1 [Example 208, 6-(cyclopropylmethoxy)-N-methyl-5-(6-methyl-7-oxo-6,7-dihydro-1H-pyrrolo[2,3-c]pyridin-4-yl)pyridine-3-sulfonamide] | 5.6 | 6 | 23.5 | 88 | 23 | 37 | – | – | – | –

The next compounds have a lower Ki [1] than those just listed; values first:

Row | Ki [1] [nM] | Ki [2] [nM] | EC50 ([3]; Homo sapiens, MX1, 72 h) [nM] | half-life at 0.5 μM [4] [min] | half-life at 0.5 μM [5] [min] | half-life at 0.5 μM [6] [min] | EC50 [3] [nM] | Stability in human liver microsomes (t1/2 in minutes) [4] [min] | Stability in rat liver microsomes (t1/2 in minutes) ([5]; rat, microsomes, pH 7.4) [min] | Stability in mouse liver microsomes (t1/2 in minutes) ([6]; mouse) [min] | SMILES
10 | 4.6 | 3.6 | 36.8 | > 120 | 105 | 116 | – | – | – | – | Cn1cc(-c2cc(S(N)(=O)=O)cnc2NCC2CC2)c2cc[nH]c2c1=O [Example 209, 6-[(cyclopropylmethyl)amino]-5-(6-methyl-7-oxo-6,7-dihydro-1H-pyrrolo[2,3-c]pyridin-4-yl)pyridine-3-sulfonamide]
11 | 1.4 | 2.1 | – | – | – | – | 11.9 | 65 | 48 | 63 | CCS(=O)(=O)c1ccc(O[C@H]2CC[C@@](C)(O)CC2)c(-c2cn(C)c(=O)c3[nH]ccc23)c1 [Example 211, 4-{5-(ethylsulfonyl)-2-[(cis-4-hydroxy-4-methylcyclohexyl)oxy]phenyl}-6-methyl-1,6-dihydro-7H-pyrrolo[2,3-c]pyridin-7-one]
12 | 3.2 | 4.8 | 28.7 | 79 | 38 | 89 | – | – | – | – | Cn1cc(-c2cc(S(C)(=O)=O)ccc2OC2CCC2)c2cc[nH]c2c1=O [Example 213, 4-[2-(cyclobutyloxy)-5-(methylsulfonyl)phenyl]-6-methyl-1,6-dihydro-7H-pyrrolo[2,3-c]pyridin-7-one]
13 | 2.4 | 1.7 | 10.5 | 27 | 9 | 8 | – | – | – | – | Cn1cc(-c2cc(S(C)(=O)=O)ccc2OCC2CCCC2)c2cc[nH]c2c1=O [Example 214, 4-[2-(cyclopentylmethoxy)-5-(methylsulfonyl)phenyl]-6-methyl-1,6-dihydro-7H-pyrrolo[2,3-c]pyridin-7-one]
14 | 0.83 | 0.46 | 1.9 | 12 | 6 | 11 | – | – | – | – | Cn1cc(-c2cc(S(C)(=O)=O)ccc2OC2CCCCC2)c2cc[nH]c2c1=O [Example 215, 4-[2-(cyclohexyloxy)-5-(methylsulfonyl)phenyl]-6-methyl-1,6-dihydro-7H-pyrrolo[2,3-c]pyridin-7-one]
15 | 3.3 | 8.1 | 34.2 | 70 | 101 | 68 | – | – | – | – | Cn1cc(-c2cc(S(C)(=O)=O)ccc2OCC2CCOC2)c2cc[nH]c2c1=O (stereo not drawn) [Example 217, 6-methyl-4-[5-(methylsulfonyl)-2-(tetrahydrofuran-3-ylmethoxy)phenyl]-1,6-dihydro-7H-pyrrolo[2,3-c]pyridin-7-one]
16 | 2.8 | 1.2 | 21.3 | 5 | 5 | 4 | – | – | – | – | Cn1cc(-c2cc(S(C)(=O)=O)ccc2OC2CCCCCC2)c2cc[nH]c2c1=O [Example 220, 4-[2-(cycloheptyloxy)-5-(methylsulfonyl)phenyl]-6-methyl-1,6-dihydro-7H-pyrrolo[2,3-c]pyridin-7-one]
